# Measurements published in patent US20220281846A1, “COMPOUNDS AND COMPOSITIONS FOR THE TREATMENT OF RESPIRATORY DISEASES” (THE UNIVERSITY OF MELBOURNE, priority 2018, published 2022).
# Like-named read-outs stand apart in the source and are kept apart here.
# Assays:
# MINK/MINK1 = target: T1, MINK/MINK1 (Homo sapiens, UniProt Q8N4C8); experiment: Kinase inhibition assay (HotSpot), MINK/MINK1; format: biochemical; conditions: 10 μM ATP, 10-dose IC50 mode; read-out: Compound IC50 (M) MINK/MINK1
# T1 construct: purchased Reaction Biology Corp
# [1] = system: interleukin-1α (IL1α)-mediated cytokine production by the lung adenocarcinoma cell line A549; experiment: Cellular assay (A549) against IL1α-mediated cytokine production; format: cell-based, human; conditions: serum starved A549 cells, compound 30 min prior to IL-1α (1 ng/ml) for 24 h, ELISA
# Experimental: Cellular Assay (A549 Human Lung Adenocarcinoma Cells) Assessing Effect of ZH3-138, ZH3-126 and PF670462 Against IL1α-Mediated Cytokine Production
# The anti-inflammatory potential of selected compounds was examined by establishing the effects on interleukin-1α (IL1α)-mediated cytokine production by the lung adenocarcinoma cell line A549. Serum starved A549 cells were treated with various concentrations of the relevant CK1δ inhibitor (PF670462, ZH3-126 and ZH3-138) 30 min prior to IL-1α (1 ng/ml) for 24 h. Supernatant was collected and concentration of IL-6, IL-8 and GM-CSF was detected by ELISA. Data are presented as mean±SEM across three replicates in FIG. 7 (A: IL-6; B: IL-8 and C: GM-CSF).
# ERBB4/HER4 = target: T2, ERBB4/HER4 (Homo sapiens, UniProt Q15303); experiment: Kinase inhibition assay (HotSpot), ERBB4/HER4; format: biochemical; conditions: 10 μM ATP, 10-dose IC50 mode; read-out: Compound IC50 (M) ERBB4/HER4
# T2 construct: purchased Reaction Biology Corp
# [2] = target: T3, human recombinant Casein kinase 18 (CK1δ) (Homo sapiens, UniProt P48730); experiment: Kinase inhibition assay (HotSpot, Reaction Biology Corp), CK1δ; format: biochemical; conditions: 10 μM ATP, 10-dose IC50 mode
# T3 construct: purchased Reaction Biology Corp
# [3] = system: TGF-β-induced IL-11 in primary human parenchymal fibroblast cells (pFbs); experiment: Human parenchymal fibroblast cell assay, TGF-β-induced IL-11 (ELISA); format: cell-based; conditions: compounds 0.1-10 μM 30 min prior to TGF-β1, 16-24 hours, 4.00* is assigned to compounds that failed to cause 50% or more inhibition at 10 µM, read-out: pIC50 IL-11 suppression (converted)
# Experimental: Human Parenchymal Fibroblast Cell Assay
# Primary human parenchymal fibroblast cells (pFbs) were cultured from parenchyma of lung resection specimens and from non-transplanted lungs of donors without chronic respiratory disease. pFbs were passaged in Dulbecco's Modified Eagle's Media (DMEM) containing 10% (v/v) heat-inactivated fetal calf serum (FCS), 15 mM HEPES, 0.2% (v/v) sodium bicarbonate, 2 mM L-glutamine, 1% (v/v) non-essential amino acids, 1% (v/v) sodium pyruvate, 2.5 μg/mL amphotericin, 5 IU/mL penicillin and 50 μg/mL streptomycin. In some experiments the human lung fibroblast cell line, MRC5 (sourced from ATTC) was used as indicated. The MRC5 line was maintained under the same conditions as described for the pFb.
# Prior to experimentation, pFb were incubated in serum-free DMEM containing 0.25% bovine serum albumin (BSA) and insulin-transferrin-selenium-containing supplement (Monomed A; CSL, Parkville, Melbourne, Australia). The cells were incubated with small molecular CK1δ inhibitors (0.1-10 μM) for 30 min prior to […] TGF-β1 (R&D Systems, Minneapolis, Minn.) and the incubation continued for 16-24 hours prior to harvest of supernatant for detection of immunoreactive IL-11. Stock solutions were made as 10 mM in 100% DMSO and diluted to the required concentration in medium containing 0.1% DMSO (final concentration).
# Supernatants were collected for measurement of IL-11 (R&D DuoSet, DY218) by ELISA following the manufacturers' instructions. Generally, capture antibodies were initially diluted to the recommended concentrations using PBS buffer, and then used to coat the wells of 96-well microplates (Greiner, #655061) by adding 50 μL/well and incubated overnight at room temperature. Next day, solutions were discarded and wells were washed 3 times with wash buffer (PBS containing 0.1% (v/v) Tween-20) prior to the addition of 200 μL of blocking solution (PBS containing 1% (v/v) BSA) for 1 hour to block non-specific sites. Plates were then washed 3 times with wash buffer and 50 μL of samples or standards were then added to wells and incubated for 2 hours at room temperature. After the incubation, plates were washed 3 times with wash buffer and 50 μL of detection antibodies were added to wells and incubated for 2 hours at room temperature. Plates were then washed 3 times before adding streptavidin-conjugated horseradish peroxidase (at the recommended concentrations) for 45 min. Plates were then washed 5 times with wash buffer and 100 μL TMB substrate solution (equal parts A and B, BD Biosciences) was added to each well until sufficient signals emerged. The reactions were inactivated by adding 100 μL sulphuric acid (2M H2SO4). The absorbance was measured at 450 nm using the Multiskan Ascent® plate reader. The absorbance of the cytokine standards was fitted to a logistic equation, allowing the concentrations of cytokine in samples to be determined.
# PIC50 values (the negative log of the concentration suppressing IL-11 level by 50%) for inhibition of TGF-β-induced IL-11 were interpolated from the linear regression of log concentration small molecule versus IL-11 level (Table 4 and FIG. 2).
# [4] = In vitro metabolic stability, human liver microsomes; format: in vitro ADME
# Experimental: Human Microsomal Stability of Compounds of the Invention
# In Vitro Metabolic Stability
# Incubation: The metabolic stability assay was performed by incubating each test compound in human liver microsomes at 37° C. and a protein concentration of 0.4 mg/mL. The metabolic reaction was initiated by the addition of an NADPH-regenerating system and quenched at various time points over a 60 minute incubation period by the addition of acetonitrile containing diazepam as internal standard. Control samples (containing no NADPH) were included (and quenched at 2, 30 and 60 minutes) to monitor for potential degradation in the absence of cofactor. The human liver microsomes used in this experiment were supplied by XenoTech, lot #1410230. Microsomal incubations were performed at a substrate concentration of 1 μM. Data analysis: Species scaling factors from Ring et al. (2011) JPharmSci, 100:4090-4110 were used to convert the in vitro CLint (μL/min/mg) to an in vivo CLint(mL/min/kg). Hepatic blood clearance and the corresponding hepatic extraction ratio (EH) were calculated using the well stirred model of hepatic extraction in each species, according to the “in vitro T1/2” approach described in Obach (1999) DrugMetab. Dispos. 27:1350-1359. The EH was then used to classify compounds as low(<0.3), intermediate (0.3-0.7), high (0.7-0.95) or very high (>0.95) extraction compounds. Predicted in vivo clearance values have not been corrected for microsomal or plasma protein binding. Species scaling calculations are based on two assumptions: 1) NADPH-dependent oxidative metabolism predominates over other metabolic routes (i.e. direct conjugative metabolism, reduction, hydrolysis, etc.), and; 2) rates of metabolism and enzyme activities in vitro are truly reflective of those that exist in vivo. If significant non-NADPH-mediated degradation is observed in microsome control samples, then assumption (1) is invalid and predicted clearance parameters are therefore not reported.
# T3 sequence (P48730 whole entry): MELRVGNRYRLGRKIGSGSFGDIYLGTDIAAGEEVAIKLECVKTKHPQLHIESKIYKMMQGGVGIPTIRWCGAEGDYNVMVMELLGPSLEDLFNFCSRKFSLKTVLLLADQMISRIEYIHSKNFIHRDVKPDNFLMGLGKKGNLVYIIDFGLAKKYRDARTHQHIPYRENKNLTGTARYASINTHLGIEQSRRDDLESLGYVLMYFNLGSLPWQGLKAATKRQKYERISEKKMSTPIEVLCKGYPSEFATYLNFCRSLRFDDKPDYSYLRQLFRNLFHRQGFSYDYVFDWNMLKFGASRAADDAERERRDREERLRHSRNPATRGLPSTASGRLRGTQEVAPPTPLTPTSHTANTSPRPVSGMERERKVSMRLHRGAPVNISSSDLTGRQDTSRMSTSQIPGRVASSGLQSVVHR
# T2 sequence (Q15303 26-1308): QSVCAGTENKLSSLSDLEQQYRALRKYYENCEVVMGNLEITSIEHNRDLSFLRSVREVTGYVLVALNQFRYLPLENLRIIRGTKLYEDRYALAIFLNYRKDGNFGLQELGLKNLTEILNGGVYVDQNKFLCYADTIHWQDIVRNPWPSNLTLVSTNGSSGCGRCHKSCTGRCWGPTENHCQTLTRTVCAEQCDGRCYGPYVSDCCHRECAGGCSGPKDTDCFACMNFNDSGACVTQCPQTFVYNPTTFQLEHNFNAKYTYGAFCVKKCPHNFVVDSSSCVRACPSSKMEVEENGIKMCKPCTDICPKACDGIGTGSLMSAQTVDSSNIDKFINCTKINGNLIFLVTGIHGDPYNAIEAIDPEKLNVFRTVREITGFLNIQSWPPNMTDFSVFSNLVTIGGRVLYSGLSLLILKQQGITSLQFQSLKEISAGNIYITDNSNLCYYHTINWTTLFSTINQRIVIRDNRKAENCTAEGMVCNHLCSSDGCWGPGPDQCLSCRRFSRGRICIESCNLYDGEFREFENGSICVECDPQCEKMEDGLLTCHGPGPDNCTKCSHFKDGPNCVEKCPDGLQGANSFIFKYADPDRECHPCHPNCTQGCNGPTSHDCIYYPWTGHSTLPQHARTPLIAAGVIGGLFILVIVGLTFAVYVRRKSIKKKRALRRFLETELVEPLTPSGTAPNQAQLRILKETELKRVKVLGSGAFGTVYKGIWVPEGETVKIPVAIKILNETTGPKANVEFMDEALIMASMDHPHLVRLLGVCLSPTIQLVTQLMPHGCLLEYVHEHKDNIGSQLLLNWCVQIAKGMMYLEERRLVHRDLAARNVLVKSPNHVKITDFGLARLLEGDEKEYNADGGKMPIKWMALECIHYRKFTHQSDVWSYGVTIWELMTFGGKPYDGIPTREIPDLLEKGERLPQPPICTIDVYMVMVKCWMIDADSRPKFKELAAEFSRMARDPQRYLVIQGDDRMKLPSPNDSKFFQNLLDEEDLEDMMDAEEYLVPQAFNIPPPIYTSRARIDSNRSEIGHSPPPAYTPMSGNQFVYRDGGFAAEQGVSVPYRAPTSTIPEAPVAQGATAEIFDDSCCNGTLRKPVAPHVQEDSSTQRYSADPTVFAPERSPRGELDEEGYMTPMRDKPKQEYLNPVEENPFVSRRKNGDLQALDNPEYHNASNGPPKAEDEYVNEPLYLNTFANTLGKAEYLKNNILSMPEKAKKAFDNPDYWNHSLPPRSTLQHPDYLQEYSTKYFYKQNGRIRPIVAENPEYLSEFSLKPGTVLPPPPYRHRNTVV
# T1 sequence (Q8N4C8 whole entry): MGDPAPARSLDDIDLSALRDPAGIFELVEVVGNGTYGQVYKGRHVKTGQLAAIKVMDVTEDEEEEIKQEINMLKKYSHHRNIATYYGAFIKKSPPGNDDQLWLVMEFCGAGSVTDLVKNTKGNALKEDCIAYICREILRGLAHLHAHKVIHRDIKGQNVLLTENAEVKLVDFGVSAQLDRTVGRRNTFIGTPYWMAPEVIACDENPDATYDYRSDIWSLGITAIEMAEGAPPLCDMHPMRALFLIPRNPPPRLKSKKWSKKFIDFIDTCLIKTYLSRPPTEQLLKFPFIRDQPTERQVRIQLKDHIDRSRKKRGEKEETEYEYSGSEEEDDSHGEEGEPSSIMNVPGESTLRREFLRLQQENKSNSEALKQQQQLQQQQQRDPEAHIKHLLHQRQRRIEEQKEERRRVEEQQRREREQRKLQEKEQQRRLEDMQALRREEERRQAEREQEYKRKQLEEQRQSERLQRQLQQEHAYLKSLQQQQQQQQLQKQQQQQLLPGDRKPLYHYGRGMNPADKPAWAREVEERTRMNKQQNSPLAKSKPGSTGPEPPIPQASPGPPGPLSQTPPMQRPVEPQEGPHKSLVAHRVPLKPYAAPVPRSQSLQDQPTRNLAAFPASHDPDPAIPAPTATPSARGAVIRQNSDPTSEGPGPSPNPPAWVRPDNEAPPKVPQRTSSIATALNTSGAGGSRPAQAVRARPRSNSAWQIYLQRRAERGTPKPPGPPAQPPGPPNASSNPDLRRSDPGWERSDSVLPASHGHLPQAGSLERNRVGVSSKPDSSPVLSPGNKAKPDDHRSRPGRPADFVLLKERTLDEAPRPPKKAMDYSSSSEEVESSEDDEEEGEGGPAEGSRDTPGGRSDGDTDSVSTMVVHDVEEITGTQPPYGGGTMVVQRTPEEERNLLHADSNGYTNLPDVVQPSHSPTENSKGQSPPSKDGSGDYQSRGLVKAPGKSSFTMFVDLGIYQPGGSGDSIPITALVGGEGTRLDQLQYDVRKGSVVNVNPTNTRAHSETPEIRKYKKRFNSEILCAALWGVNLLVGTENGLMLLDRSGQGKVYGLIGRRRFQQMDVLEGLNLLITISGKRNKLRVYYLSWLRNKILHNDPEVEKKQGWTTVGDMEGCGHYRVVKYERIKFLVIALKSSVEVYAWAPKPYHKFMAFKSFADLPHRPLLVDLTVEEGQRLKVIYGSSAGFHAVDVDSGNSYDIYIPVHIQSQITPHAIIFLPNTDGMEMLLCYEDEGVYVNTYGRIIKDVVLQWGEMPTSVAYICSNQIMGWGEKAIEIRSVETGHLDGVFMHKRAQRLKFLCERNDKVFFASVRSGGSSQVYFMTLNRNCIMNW
smiles,measurement,setting,value
"CCn1cnc(-c2ccc(F)cc2)c1-c1ccnc(NCCO)n1 [ZH3-126, 2-((4-(1-Ethyl-4-(4-fluorophenyl)-1H-imidazol-5-yl)pyrimidin-2-yl)amino)ethan-1-ol]",IC50,MINK/MINK1,1.99e-07 M
same,"supernatant concentrations of inflammatory biomarkers (IL-6, IL-8, GM-CSF)",[1],ability to reduce supernatant concentrations of other inflammatory biomarkers
same,IC50,ERBB4/HER4,9.52e-06 M
same,IC50,[2]; read-out: Compound IC50 (M) CK1δ,6.38e-10 M
same,IC50,"[2]; casein kinase 1δ, read-out: pIC50 (converted)",6.46e-10 M
same,IC50,[3],1860 nM
same,Predicted EH (hepatic extraction ratio),[4]; human liver microsomes,0.22
same,microsomal CLint at 1 μM,"[4]; human liver microsomes, 1 μM",7 µL/min/mg
same,half-life at 1 μM,"[4]; human liver microsomes, 1 μM, 0.4 mg/mL protein, 37° C.",4.03 h
same,Predicted CLblood,"[4]; scaled from human liver microsomes, well stirred model",5 mL/min/kg
same,CLint scaled at 1 μM,"[4]; scaled from human liver microsomes, read-out: Predicted CLint, in vivo",6 mL/min/kg
